This note sets out measurements from US9505730B2, “Mineralocorticoid receptor antagonists” (Merck Sharp & Dohme Corp., priority 2011, dated 2016).

This assay has as its target T1, full-length human Mineralocorticoid Receptor (MR) (Homo sapiens, UniProt P08235).
T1 construct: host or cells: PathHunter CHO-K1 cells
T1 sequence (P08235 1-984): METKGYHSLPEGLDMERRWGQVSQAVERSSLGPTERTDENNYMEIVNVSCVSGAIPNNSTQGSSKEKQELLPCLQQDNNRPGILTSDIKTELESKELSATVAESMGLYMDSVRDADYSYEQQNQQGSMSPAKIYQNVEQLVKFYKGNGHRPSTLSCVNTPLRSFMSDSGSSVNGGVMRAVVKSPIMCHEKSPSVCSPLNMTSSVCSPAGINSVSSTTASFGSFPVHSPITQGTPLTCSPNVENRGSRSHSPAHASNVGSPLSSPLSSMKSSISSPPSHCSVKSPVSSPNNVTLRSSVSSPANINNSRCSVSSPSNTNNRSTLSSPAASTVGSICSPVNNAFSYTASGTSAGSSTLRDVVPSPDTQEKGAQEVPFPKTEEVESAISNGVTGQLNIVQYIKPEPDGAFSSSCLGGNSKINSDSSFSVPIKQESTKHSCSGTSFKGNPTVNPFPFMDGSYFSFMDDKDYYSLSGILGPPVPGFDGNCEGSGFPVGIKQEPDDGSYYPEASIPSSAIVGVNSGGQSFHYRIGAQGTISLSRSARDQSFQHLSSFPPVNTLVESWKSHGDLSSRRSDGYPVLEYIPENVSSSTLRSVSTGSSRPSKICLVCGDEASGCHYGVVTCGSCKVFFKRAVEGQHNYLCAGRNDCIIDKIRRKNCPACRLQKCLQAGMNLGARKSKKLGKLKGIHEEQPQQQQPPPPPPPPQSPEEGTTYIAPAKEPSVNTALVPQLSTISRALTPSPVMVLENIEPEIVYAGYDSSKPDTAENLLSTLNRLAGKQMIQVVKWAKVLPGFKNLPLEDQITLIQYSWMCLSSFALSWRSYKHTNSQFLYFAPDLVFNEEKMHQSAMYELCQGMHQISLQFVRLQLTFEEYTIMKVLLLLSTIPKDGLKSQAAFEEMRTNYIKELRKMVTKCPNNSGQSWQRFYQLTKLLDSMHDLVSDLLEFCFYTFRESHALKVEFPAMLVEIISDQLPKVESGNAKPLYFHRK
The assay can be described thus: human MR NH Pro assay (PathHunter Protein:Protein interaction assay, MR antagonism). The conditions noted are these: PathHunter CHO-K1 cells overexpressing human MR; aldosterone 0.3 nM; 6 hours at 37° C.; luminescence; read-out: IC50 rating. Type of assay: cell-based. On the procedure: The activity of the compounds of the present invention regarding mineralocorticoid receptor antagonism was evaluated using the following assay.
Assessment of Mr Potency in Hmr Nh Pro Assay
The human MR NH Pro assay is a commercially available PathHunter™ Protein: Protein interaction assay (DiscoveRx; http://www.discoverx.com/nhrs/prod-nhrs.php) that measures the ability of compounds to antagonize full-length human Mineralocorticoid Receptor (MR) binding to a coactivator peptide. PathHunter™ CHO-K1 cells that overexpress human MR (Cat #93-0456C2, Lot No: 09B0913) were cultured in growth media (F12K w/Glutamine and phenol red (Gibco 11765-047) supplemented with 10% HI FBS (Gibco 16000); 0.25 mg/ml Hygromycin in PBS (Invitrogen 10687-010, 50 mg/ml); 100 I.U./mL and 100 μg/mL Pen/Strep (Gibco 15140-122); 0.6 mg/mL Geneticin).
Compounds were assessed for MR antagonist activity by incubating the cells with a titrating dose of compound in F12K w/Glutamine and phenol red culture media (Invitrogen 11765-047) supplemented with 1% Charcoal/Dextran Treated FBS (Hyclone #SH30068.01) and aldosterone (0.3 nM) for 6 hours at 37° C.
• F12K w/Glutamine and phenol red (Gibco 11765-047) • 10% HI FBS (Gibco 16000) • 0.25 mg/ml Hygromycin in PBS (Invitrogen 10687-010, 50 mg/ml) • 100 I.U./mL and 100 μg/mL Pen/Strep (Gibco 15140-122) • 0.6 mg/mL Geneticin (Gibco 10131, 50 mg/ml) 2. Assay media: • F12K w/Glutamine and phenol red (Invitrogen 11765-047) • 1% Charcoal/Dextran Treated FBS (Hyclone #SH30068.01) 3. 3× PathHunter Detection Reagents (Cat#93-0001) (need ˜6 ml/plate). […] Control Agonist: Aldosterone: Sigma cat #A9477 • Prepare stock solution—10 μM in DMSO kept at −20 C • for assay, dilute in assay media to 1.8 or 6 nM (6× of final concentration=about 0.3 nM to about 1.0 nM) 5. Cell line: PathHunter CHO-K1 MR cells Cat #93-0456C2, Lot No: 09B0913, from operation liquid nitrogen stock. 6. Control Antagonist: Spironolactone: Sigma #S-3378 and Eplerenone Sigma #107724-20-9 (10 mM stock concentration also prepared in DMSO and stored at −20° C.). Methods: Assay Set up and Calculations: • 1. Cells were grown in F12+FBS+Hygromycin+pen/strep+Genetin. • 2. Cells were collected with 0.05% trypsin and the cell suspension was spun and resuspended in a volume of F12+1.5% CD-FBS and counted. • 3. The cells were resuspended to 4×10^5 cells/mL. • 4. Cells were (25 μL/well) added to the wells of a 384 well plate. • 5. The plate was then incubated at 37° C. over night in a humidified incubator with 5% CO2. • 6. Test compounds were titrated starting at 4.4 mM, 10-point titration in 1:3 dilution. • 7. Aldosterone was diluted in assay media to 1.8 nM or 6 nM from 10 μM stock (final concentration to be about 0.3 nM to about 1.0 nM). Protocol for 384 well plate format: 6 hr treatment: • 1. Plated 10K exponentially growing cells/well (25 μL) resuspended in assay media to each well using the Multidrop (Thermo Electron). Use white wall, clear bottom assay plates (Costar #3570) and incubate overnight at 37° C., 5% CO2. • 2. 0.25 μL 120× test compound (final DMSO concentration should be <1%) was added to each well n=2, 10 point titrations starting at 36.7 μM final concentration. • 3. 5 μL 6× agonist (final aldosterone concentration should be about 0.3 nM to about 1.0 nM) was added to all wells using the PlateMate Plus.
(ThermoFisher) (except those wells in columns 23 and 24) • 4. 5 μL of assay media was added to all wells in column 23 and 24. • 5. Plates were incubated 6 hrs at 37° C., 5% CO2. • 6. 15 μL 3× DiscoveRx detection reagent was added to each well. • 7. Plates were incubated for 1 hour at room temperature (plates stored in the dark). • 8. Plates were read on Envision (PerkinElmer) luminesence plate reader and analyzed using ADA. LC/MS method: (LC2M_Low/Med_Positive mode). LC Conditions: 5-98% CH3CN/H2O+v 0.1% TFA over 1.25 min; Flow Rate=1.5 mL/min, UV wavelength 254 nm; Column: Waters XTerra® MS C18 3.5 μm 2.1×20 mm IS™

A word on the IC50: it is the point on the concentration scale where inhibition reaches its midpoint. With `C[C@H](c1ccccc1)N1C(=O)O[C@](Cc2ccccc2)(C(=O)N2CCc3ccccc3C2)C1=O` [Compound 21, (5R)-Benzyl-5-(3,4-dihydroisoquinolin-2(1H)-ylcarbonyl)-3-[(1R)-1-phenylethyl]-1,3-oxazolidine-2,4-dione], the IC50 is 100 to 500 nM.

`COc1cc(CNC(=O)[C@@]2(Cc3ccccc3)OC(=O)N([C@H](C)c3ccccc3)C2=O)cc(OC)c1` [Compound 1, (5R)-Benzyl-N-(3,5-dimethoxybenzyl)-2,4-dioxo-3-[(1R)-1-phenylethyl]-1,3-oxazolidine-5-carboxamide]: the 50% inhibitory concentration (IC50) is below 100 nM.

As to `COc1cc(CNC(=O)[C@@]2(Cc3ccccc3)OC(=O)N(C3CCCc4ccccc43)C2=O)cc(OC)c1` (stereo partly drawn) [Compound 7, (5R)-5-Benzyl-N-(3,5-dimethoxybenzyl)-2,4-dioxo-3-(1,2,3,4-tetrahydronaphthalen-1-yl)-1,3-oxazolidine-5-carboxamide], the IC50 was 100 to 500 nM.

Take `C[C@H](c1ccc(F)cc1)N1C(=O)O[C@](Cc2ccc(F)cc2)(C(=O)NCc2ccc(Cl)c(Cl)c2)C1=O` [Compound 2, (5R)-N-(3,4-Dichlorobenzyl)-5-(4-fluorobenzyl)-3-[(1R)-1-(4-fluorophenyl)ethyl]-2,4-dioxo-1,3-oxazolidine-5-carboxamide]: the IC50 was in the range of 100 to 500 nM.

For the compound `C[C@H](c1ccccc1)N1C(=O)N[C@](Cc2ccccc2)(C(=O)N2CCc3ccccc3C2)C1=O` (single isomer, unassigned) [Compound 23], the IC50 was 500 to 4500 nM.
